Test results reported in publication PMC10989005, “Inter-phylum circulation of a beta-lactamase-encoding gene: a rare but observable event” (Antimicrobial Agents and Chemotherapy, 2024).

molecular target: T1, MUN-1 beta-lactamase; test: beta-lactamase inhibition; format: biochemical, Escherichia coli; settings: covalent (known mechanism); reporter substrate and buffer only in supplement
T1 construct: gene blaMUN-1; full gene cloned in pTOPO-kanR, expressed in E. coli TOP10, purified by ion exchange; no tag mentioned

Compared with NC(=O)[C@@H]1CC[C@@H]2CN1C(=O)N2OS(=O)(=O)O [avibactam], C[C@]1(Cn2ccnn2)[C@H](C(=O)O)N2C(=O)C[C@H]2S1(=O)=O [tazobactam] is 4.7-fold lower in IC50: 3.8 nM for the first, 0.8 nM for the second. The second is the more potent here.

O=C(O)[C@H]1/C(=C/CO)O[C@@H]2CC(=O)N21 [clavulanic acid] showed an IC50 of 0.32 nM.

system: T1, MUN-1 beta-lactamase; test: hydrolysis kinetics, purified beta-lactamase; format: biochemical, Escherichia coli; settings: details in supplement; read-out: Kinetic measurement / Km
Source text: hydrolysis kinetics, purified beta-lactamase on MUN-1 beta-lactamase

Compared with CC1(C)S[C@@H]2[C@H](NC(=O)[C@H](N)c3ccccc3)C(=O)N2[C@H]1C(=O)O [Ampicillin], CC1(C)S[C@@H]2[C@H](NC(=O)Cc3ccccc3)C(=O)N2[C@H]1C(=O)O [Penicillin G] is 2.9-fold lower in Km: 280 µM for the first, 95 µM for the second.

Compared with C[C@H]1[C@H](NC(=O)/C(=N\OC(C)(C)C(=O)O)c2csc(N)n2)C(=O)N1S(=O)(=O)O [Aztreonam], CC(=O)OCC1=C(C(=O)O)N2C(=O)[C@@H](NC(=O)Cc3cccs3)[C@H]2SC1 [Cephalothin] is 3-fold lower in Km: 45 µM for the first, 15 µM for the second.

molecular target: T1, MUN-1 beta-lactamase; test: kinetic measurement, purified beta-lactamase; format: biochemical, Escherichia coli; settings: covalent (acylation without deacylation suggested); details in supplement
Source text: kinetic measurement, purified beta-lactamase on MUN-1 beta-lactamase

Going from CC(C)(O/N=C(\C(=O)N[C@@H]1C(=O)N2C(C(=O)[O-])=C(C[n+]3ccccc3)CS[C@H]12)c1csc(N)n1)C(=O)O [Ceftazidime] to CCN1CCN(C(=O)N[C@@H](C(=O)N[C@@H]2C(=O)N3[C@@H]2SC(C)(C)[C@@H]3C(=O)O)c2ccccc2)C(=O)C1=O [Piperacillin], the Ki falls from 580 nM to 7.2 nM (81-fold). The second binds more tightly here.

same assay, conditions: details in supplement

C[C@@H](O)[C@H]1C(=O)N2C(C(=O)O)=C(S[C@@H]3CN[C@H](C(=O)Nc4cccc(C(=O)O)c4)C3)[C@H](C)[C@H]12 [Ertapenem] and C[C@@H](O)[C@H]1C(=O)N2C(C(=O)O)=C(S[C@@H]3CN[C@H](C(=O)N(C)C)C3)[C@H](C)[C@H]12 [Meropenem] are within 1.5-fold of each other in Ki: 17 nM for the first, 19 nM for the second.

First: C[C@@H](O)[C@H]1C(=O)N2C(C(=O)O)=C(SCCN=CN)C[C@H]12 [Imipenem]
Second: CC1(C)S[C@@H]2[C@H](NC(=O)[C@H](C(=O)O)c3ccsc3)C(=O)N2[C@H]1C(=O)O [Ticarcillin]
The Ki of the first is 2.8-fold lower: 1.3 nM for the first, 3.6 nM for the second.
